The test system of experiment [1] is WT (Col-0) seedlings. Briefly: BRZ220 treatment, hypocotyl elongation growth. It is filed as in vivo, Arabidopsis thaliana. Conditions: 1 μM BRZ220 in media, WT plants, 22° C. or 28° C., 6 d, LD. The method, then: Pharmacological treatments were performed in plates adding hormones/drugs in the media. Chemicals used include; 1 μM BRZ220 (Gift from T. Nakano, RIKEN, Japan) or 50 μM Bikinin (200980, Sigma-Aldrich) for 6-d in control (long days, 22° C.) or high temperature (long days, 28° C.) conditions. Hypocotyl length were measured using the Image J software (v.1.48v) (https-/imagej.nih.gov/ij/). For hypocotyl elongation analysis, seedlings were grown in horizontally placed 0.5MS− media plates in controlled growth conditions (Aralab 600; long days 16:8h day/night cycle 60% relative humidity and 50-70 μmol m^−2 s^−1 of cool-white fluorescent light) at 22° C. or 28° C. temperature for 5-7d. Plates were photographed and hypocotyl length were measured using the ImageJ software (v.1.48v) (https:/imagej.nih.gov/ij/). For root growth analysis, seedlings were grown in vertically placed 0.5MS− media plates in controlled growth conditions (Aralab 600; long days 16:8h day/night cycle; 22° C.). MyROOT software (Betegón-Putzé et al., 2019) was used to compare root growth of plants. Lateral roots were manually counted under a stereozoom microscope in 9-d-old seedlings.

Experiment [2] deals with T1, BRL3 (BRASSINOSTEROID RECEPTOR LIKE 3), full length, fused to a half of YFP (BiFC construct) (Arabidopsis thaliana, UniProt Q9LJF3 24-1164).
T1 construct: also called BRL3 receptor; AT3G13380; not shown: half of YFP (YN or YC, both directions tested) from vectors pGTQL1211-YN / pGTQL1221-YC
T1 sequence: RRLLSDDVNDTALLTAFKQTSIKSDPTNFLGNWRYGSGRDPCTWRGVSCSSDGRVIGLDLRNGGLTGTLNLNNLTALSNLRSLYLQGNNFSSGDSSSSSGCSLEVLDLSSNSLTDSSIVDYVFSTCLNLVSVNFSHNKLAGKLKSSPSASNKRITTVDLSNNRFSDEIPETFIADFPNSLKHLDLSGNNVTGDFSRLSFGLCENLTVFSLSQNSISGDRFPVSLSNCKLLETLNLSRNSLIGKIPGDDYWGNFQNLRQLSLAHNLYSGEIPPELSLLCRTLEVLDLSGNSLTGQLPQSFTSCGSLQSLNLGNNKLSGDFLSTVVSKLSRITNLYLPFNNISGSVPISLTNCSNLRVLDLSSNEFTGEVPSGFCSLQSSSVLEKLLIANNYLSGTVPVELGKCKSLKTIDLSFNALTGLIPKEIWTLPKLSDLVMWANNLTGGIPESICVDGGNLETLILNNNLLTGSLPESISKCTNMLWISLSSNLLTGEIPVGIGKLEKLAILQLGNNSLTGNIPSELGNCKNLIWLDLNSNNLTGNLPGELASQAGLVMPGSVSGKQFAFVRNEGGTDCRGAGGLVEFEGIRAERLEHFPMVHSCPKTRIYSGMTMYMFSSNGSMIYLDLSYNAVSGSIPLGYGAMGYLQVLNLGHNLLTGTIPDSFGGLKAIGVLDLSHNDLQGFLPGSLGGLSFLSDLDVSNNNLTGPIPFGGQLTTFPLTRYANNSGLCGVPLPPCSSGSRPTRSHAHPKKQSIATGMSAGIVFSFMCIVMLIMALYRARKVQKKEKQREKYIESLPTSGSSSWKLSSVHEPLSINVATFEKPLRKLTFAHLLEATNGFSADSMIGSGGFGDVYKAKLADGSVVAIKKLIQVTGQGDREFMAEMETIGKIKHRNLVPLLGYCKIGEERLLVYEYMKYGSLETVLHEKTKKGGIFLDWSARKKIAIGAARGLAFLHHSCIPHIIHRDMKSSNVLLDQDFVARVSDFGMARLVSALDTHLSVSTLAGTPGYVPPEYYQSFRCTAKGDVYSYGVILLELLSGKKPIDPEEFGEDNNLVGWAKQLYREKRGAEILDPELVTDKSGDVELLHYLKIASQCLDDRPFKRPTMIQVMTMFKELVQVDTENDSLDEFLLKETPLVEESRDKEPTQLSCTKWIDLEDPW
Briefly: BiFC (split YFP) in Nicotiana benthamiana leaves, confocal microscopy.

For `CC(O)(c1ccccc1)C(Cc1ccc(Cl)cc1)n1cncn1` (centres unmarked) [BRZ220, Brassinazole], in experiment [1], the hypocotyl size result is on record as “reduced hypocotyl size irrespective of the temperature”.

B1: BKI1, BiFC negative control (other, UniProt Q9FMZ0 1-337, looked up)
chain: METNLQQVKNSSQTFSEKQNPKQEASPSPISSTCSSPSHDFSFTISLQPLSSSSKHISPTLRSPSKTTSSYQQTDPFAVDLSPADEIFFHGHLLPLHLLSHLPVSPRTSTGSYNDGFTLPVKDILPDQPTNNNNNTENAITNISTEAKDDNTEDKAEGEIRVKTKPIKSFSLFGLSKWRKGFESNEREQEQQQQKIKKPMSLDLSHAVKKYIRMLFQKRGNGTQFWNRRQTSSYSFSSSLMGPNGNSKTMINGSYNKRDLIRGRRGELFSAPASMRTSPTNSGHLRVSTAGLSSSSGSTSSSSSDSTMEELQAAIQAAIAHCKNSSAVDRDDKVKDS
notes: whole, on cells; not shown: the construct of this control is not described
On to B1, for which the binding result in experiment [2] is listed as “no binding”.

The values are drawn from US20250340603A1, “A METHOD FOR MODULATING PLANT ADAPTATION TRAITS” (CRAG (Centre de Recerca en Agrigenòmica), priority 2021, published 2025).
